The text below walks through data of US20090030065A1, “Use of Pde1c and Inhibitors Thereof” (NYCOMED GmbH, priority 2005, published 2009).

In general, IC50 refers to the concentration that gives 50% inhibition.

The structures appear in SMILES notation.

Holding throughout (type): biochemical
One assay relates to PDE3. Nature of the assay: PDE isoenzyme activities in cellular lysates: PDE3. The following applies: 10 μM, 0.5 μM cyclic AMP. How it is done:
(§1) Cells (1-3×10^6) were washed twice in phosphate buffered saline (4° C.) and resuspended in 1 ml homogenization buffer (137 mM NaCl, 2.7 mM KCl, 8.1 mM Na2HPO4, 1.5 mM KH2PO4, 10 mM HEPES, 1 mM EGTA, 1 mM MgCl2, 1 mM-mercaptoethanol, […], […], 50 mM phenylmethylsulfonyl fluoride, 10 mM soybean trypsin inhibitor, 2 mM benzamidine, pH 8.2). Cells were disrupted by sonication (Branson sonifier, 3×15 s) and lysates were immediately used for phosphodiesterase (PDE) activity measurements. PDE activities were assessed in cellular lysates as described (Thompson & Appleman, 1979) with some modifications (Bauer & Schwabe, 1980). The assay mixture (final volume […]) contained (mM): Tris HCl 30; pH 7.4, MgCl2 5, 0.5 μM either cyclic AMP or cyclic GMP as substrate including [^3H]cAMP or [^3H]cGMP (about 30 000 c.p.m. per well), […], PDE isoenzyme-specific activators and inhibitors as described below and cellular lysates. Incubations were performed for 60 min at 37° C. and reactions were terminated by adding […] 0.2 M HCl per well. Assays were left on ice for 10 min and then […] 5′-nucleotidase (Crotalus atrox) was added. […] Columns were eluted with 2 ml 30 mM ammonium formiate (pH 6.0) and radioactivity in the eluate was counted. […] Briefly, PDE4 was calculated as the difference of PDE activities at 0.5 μM cyclic AMP in the presence and absence of 1 μM Piclamilast. […]

The subject of a further assay is PDE4. Description: PDE isoenzyme activities in cellular lysates: PDE4. Conditions: 1 μM, 0.5 μM cyclic AMP. How it is done: as §1
Assay [1] addresses human recombinant PDE11A4 (Homo sapiens, UniProt Q9HCR9). Description: Inhibition of recombinant PDE activity, SPA test: PDE11A4. The following applies: human recombinant enzyme; read-out: IC50 on PDE 11A4. How it is done:
(§2) Measurement of the Inhibition of Phosphodiesterase Activity Phosphodiesterase activity is measured in a modified SPA (scintillation proximity assay) test, supplied by Amersham Biosciences (see procedural instructions “phosphodiesterase [3H]cAMP SPA enzyme assay, code TRKQ 7090”), carried out in 96-well microtitre plates (MTP's): The test volume is 100 μl and contains 20 mM Tris buffer (pH 7.4), 0.1 mg of BSA (bovine serum albumin)/ml, 5 mM Mg^2+, 0.5 μM cGMP or cAMP (including about 50,000 cpm of [3H]cGMP or [3H]cAMP as a tracer; whether to use cAMP or cGMP depends on the substrate-specificity of the phosphodiesterase measured), 1 μl of the respective substance dilution in DMSO and sufficient recombinant PDE to ensure that 10-20% of the cGMP or cAMP is converted under the said experimental conditions. […] After a preincubation of 5 min at 37° C., the reaction is started by adding the substrate (cGMP) and the assay is incubated for a further 15 min; after that, it is stopped by adding SPA beads (50 μl). […] After the beads have been sedimented (>30 min), the MTP's are analyzed in commercially available luminescence detection devices. The corresponding IC50 values of the compounds for the inhibition of PDE activity are determined from the concentration-effect curves by means of non-linear regression.
(§3) Compound A and B are analyzed for inhibition of PDE family members as described.

For another assay, the target named is human recombinant PDE2A3 (Homo sapiens, UniProt O00408). Description: Inhibition of recombinant PDE activity, SPA test: PDE2A3. The following applies: human recombinant enzyme; read-out: IC50 on PDE 2A3. How it is done: as §2, §3
Sequence of human recombinant PDE2A3 (O00408 whole entry): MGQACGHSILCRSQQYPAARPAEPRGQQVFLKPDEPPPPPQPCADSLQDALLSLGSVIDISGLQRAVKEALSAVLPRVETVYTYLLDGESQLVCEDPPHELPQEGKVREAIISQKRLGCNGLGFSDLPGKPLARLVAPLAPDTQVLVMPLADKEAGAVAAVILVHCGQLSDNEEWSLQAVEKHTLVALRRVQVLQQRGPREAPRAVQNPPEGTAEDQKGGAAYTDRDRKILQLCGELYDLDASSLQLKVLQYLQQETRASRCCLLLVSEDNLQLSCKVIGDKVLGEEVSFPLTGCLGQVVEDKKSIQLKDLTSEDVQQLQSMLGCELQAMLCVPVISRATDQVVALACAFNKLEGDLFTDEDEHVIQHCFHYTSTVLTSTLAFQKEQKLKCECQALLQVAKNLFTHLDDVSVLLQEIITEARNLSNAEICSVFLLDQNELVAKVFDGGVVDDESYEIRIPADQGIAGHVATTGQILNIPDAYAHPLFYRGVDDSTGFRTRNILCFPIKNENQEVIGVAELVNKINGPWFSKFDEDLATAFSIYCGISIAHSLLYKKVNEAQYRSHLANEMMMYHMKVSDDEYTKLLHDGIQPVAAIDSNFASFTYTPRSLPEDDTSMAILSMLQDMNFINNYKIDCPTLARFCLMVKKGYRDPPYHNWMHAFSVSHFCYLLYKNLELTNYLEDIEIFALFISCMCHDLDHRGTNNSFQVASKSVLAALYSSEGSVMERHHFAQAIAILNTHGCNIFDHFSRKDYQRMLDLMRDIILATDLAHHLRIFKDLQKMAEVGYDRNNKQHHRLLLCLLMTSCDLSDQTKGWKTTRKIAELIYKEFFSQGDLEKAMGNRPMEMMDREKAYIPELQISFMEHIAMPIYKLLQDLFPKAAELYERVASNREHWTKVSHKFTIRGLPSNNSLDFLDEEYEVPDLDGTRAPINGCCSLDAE
Another assay concerns the target human recombinant PDE4B2 (Homo sapiens, UniProt Q07343). Nature of the assay: Inhibition of recombinant PDE activity, SPA test: PDE4B2. The following applies: human recombinant enzyme; read-out: IC50 on PDE 4B2. How it is done:
as §2, §3

The target of another assay is human recombinant PDE1C1 (Homo sapiens, UniProt Q14123). Description: Inhibition of recombinant PDE activity, SPA test: PDE1C1. The following applies: for IC50: human recombinant enzyme, read-out: IC50 on PDE 1C1; for Selectivity for PDE1C1 versus other PDE family members tested: see Tab. 1. How it is done: Measurement of the Inhibition of Phosphodiesterase Activity Phosphodiesterase activity is measured in a modified SPA (scintillation proximity assay) test, supplied by Amersham Biosciences (see procedural instructions “phosphodiesterase [3H]cAMP SPA enzyme assay, code TRKQ 7090”), carried out in 96-well microtitre plates (MTP's): The test volume is 100 μl and contains 20 mM Tris buffer (pH 7.4), 0.1 mg of BSA (bovine serum albumin)/ml, 5 mM Mg^2+, 0.5 μM cGMP or cAMP (including about 50,000 cpm of [3H]cGMP or [3H]cAMP as a tracer; whether to use cAMP or cGMP depends on the substrate-specificity of the phosphodiesterase measured), 1 μl of the respective substance dilution in DMSO and sufficient recombinant PDE to ensure that 10-20% of the cGMP or cAMP is converted under the said experimental conditions. […] After a preincubation of 5 min at 37° C., the reaction is started by adding the substrate (cGMP) and the assay is incubated for a further 15 min; after that, it is stopped by adding SPA beads (50 μl). In accordance with the manufacturer's instructions, the SPA beads had previously been resuspended in water, but were then diluted 1:3 (v/v) in water; the diluted solution also contains 3 mM IBMX to ensure a complete PDE activity stop. After the beads have been sedimented (>30 min), the MTP's are analyzed in commercially available luminescence detection devices. The corresponding IC50 values of the compounds for the inhibition of PDE activity are determined from the concentration-effect curves by means of non-linear regression.
Sequence of human recombinant PDE1C1 (Q14123 1-634 isoform Q14123-2): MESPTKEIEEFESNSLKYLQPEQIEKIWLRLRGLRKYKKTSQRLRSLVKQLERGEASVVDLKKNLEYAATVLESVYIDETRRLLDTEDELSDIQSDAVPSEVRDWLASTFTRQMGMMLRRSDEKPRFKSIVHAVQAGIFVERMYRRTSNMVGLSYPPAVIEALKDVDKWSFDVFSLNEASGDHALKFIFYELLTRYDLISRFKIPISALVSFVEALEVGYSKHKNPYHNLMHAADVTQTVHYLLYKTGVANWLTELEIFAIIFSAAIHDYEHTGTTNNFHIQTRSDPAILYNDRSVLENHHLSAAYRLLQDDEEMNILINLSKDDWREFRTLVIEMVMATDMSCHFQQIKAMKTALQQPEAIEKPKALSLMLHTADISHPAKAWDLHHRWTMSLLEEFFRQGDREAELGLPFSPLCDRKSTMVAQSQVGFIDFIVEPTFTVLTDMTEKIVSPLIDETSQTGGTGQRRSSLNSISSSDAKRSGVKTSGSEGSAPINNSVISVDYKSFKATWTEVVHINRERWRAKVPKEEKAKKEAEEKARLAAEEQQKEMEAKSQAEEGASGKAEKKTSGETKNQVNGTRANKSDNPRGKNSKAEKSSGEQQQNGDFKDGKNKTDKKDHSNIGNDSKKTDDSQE
as §3

The next assay deals with human recombinant PDE3A1 (Homo sapiens, UniProt Q14432). Nature of the assay: Inhibition of recombinant PDE activity, SPA test: PDE3A1. The following applies: human recombinant enzyme; read-out: IC50 on PDE 3A1. How it is done:
as §2, §3

The target in a further assay is human recombinant PDE5A1 (Homo sapiens, UniProt O76074). Nature of the assay: Inhibition of recombinant PDE activity, SPA test: PDE5A1. The following applies: human recombinant enzyme; read-out: IC50 on PDE 5A1. How it is done: as §2, §3
A further assay concerns the target human recombinant PDE10A (Homo sapiens, UniProt Q9Y233). Nature of the assay: Inhibition of recombinant PDE activity, SPA test: PDE10A. Conditions: human recombinant enzyme; read-out: IC50 on PDE 10A. How it is done:
as §2, §3

A further assay addresses T1, PDE5 (Homo sapiens, UniProt O76074).
T1 construct: PDE activities were assessed in cellular lysates; endogenous in cells
Description: PDE isoenzyme activities in cellular lysates: PDE5. The following applies: 100 nM, 0.5 μM cyclic GMP.

The target of the next assay is T2, PDE2 (Homo sapiens, UniProt O00408).
T2 construct: endogenous in cells
T2 sequence (O00408 whole entry): as the sequence (O00408 whole entry) above
Description: PDE isoenzyme activities in cellular lysates: PDE2. The following applies: 100 nM. How it is done:
as §1

Sequence of human recombinant PDE4B2 (Q07343 1-564 isoform Q07343-2): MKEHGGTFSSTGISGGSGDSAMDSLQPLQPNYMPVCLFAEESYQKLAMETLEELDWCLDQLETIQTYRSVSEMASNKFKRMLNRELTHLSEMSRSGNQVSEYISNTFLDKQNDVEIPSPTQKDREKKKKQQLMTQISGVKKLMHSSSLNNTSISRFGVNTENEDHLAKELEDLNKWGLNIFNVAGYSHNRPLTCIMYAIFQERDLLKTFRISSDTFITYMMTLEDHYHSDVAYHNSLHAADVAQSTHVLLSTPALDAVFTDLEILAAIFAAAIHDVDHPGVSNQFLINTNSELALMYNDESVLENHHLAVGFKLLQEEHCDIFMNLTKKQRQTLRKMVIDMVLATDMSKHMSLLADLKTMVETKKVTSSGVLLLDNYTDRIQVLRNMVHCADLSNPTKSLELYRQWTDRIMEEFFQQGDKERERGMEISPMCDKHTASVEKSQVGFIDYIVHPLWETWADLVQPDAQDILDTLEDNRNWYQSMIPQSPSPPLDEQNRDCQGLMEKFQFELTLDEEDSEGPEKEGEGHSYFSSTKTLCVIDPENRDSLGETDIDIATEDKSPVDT
Sequence of human recombinant PDE11A4 (Q9HCR9 whole entry): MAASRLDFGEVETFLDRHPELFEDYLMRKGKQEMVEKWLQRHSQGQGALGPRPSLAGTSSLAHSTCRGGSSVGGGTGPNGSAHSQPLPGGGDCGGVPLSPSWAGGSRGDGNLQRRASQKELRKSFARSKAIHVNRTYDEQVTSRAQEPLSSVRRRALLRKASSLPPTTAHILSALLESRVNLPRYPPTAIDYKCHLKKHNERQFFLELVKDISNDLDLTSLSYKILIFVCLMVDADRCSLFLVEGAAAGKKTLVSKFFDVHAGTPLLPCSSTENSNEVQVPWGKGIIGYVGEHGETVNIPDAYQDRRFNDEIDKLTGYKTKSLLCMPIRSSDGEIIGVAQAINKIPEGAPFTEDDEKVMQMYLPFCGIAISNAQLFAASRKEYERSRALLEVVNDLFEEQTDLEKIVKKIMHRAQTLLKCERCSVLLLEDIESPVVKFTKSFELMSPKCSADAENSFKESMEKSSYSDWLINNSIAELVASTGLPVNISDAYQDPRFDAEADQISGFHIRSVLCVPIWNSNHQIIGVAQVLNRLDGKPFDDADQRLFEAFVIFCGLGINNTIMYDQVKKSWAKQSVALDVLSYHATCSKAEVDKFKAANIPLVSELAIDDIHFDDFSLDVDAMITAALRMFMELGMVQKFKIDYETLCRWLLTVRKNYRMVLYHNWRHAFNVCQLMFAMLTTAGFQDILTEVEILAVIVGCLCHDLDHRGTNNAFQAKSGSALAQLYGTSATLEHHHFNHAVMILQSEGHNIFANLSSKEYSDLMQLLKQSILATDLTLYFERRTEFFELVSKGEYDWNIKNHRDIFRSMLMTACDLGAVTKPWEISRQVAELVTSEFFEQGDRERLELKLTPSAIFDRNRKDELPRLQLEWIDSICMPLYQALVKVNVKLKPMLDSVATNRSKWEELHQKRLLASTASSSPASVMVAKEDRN
Sequence of human recombinant PDE3A1 (Q14432 whole entry): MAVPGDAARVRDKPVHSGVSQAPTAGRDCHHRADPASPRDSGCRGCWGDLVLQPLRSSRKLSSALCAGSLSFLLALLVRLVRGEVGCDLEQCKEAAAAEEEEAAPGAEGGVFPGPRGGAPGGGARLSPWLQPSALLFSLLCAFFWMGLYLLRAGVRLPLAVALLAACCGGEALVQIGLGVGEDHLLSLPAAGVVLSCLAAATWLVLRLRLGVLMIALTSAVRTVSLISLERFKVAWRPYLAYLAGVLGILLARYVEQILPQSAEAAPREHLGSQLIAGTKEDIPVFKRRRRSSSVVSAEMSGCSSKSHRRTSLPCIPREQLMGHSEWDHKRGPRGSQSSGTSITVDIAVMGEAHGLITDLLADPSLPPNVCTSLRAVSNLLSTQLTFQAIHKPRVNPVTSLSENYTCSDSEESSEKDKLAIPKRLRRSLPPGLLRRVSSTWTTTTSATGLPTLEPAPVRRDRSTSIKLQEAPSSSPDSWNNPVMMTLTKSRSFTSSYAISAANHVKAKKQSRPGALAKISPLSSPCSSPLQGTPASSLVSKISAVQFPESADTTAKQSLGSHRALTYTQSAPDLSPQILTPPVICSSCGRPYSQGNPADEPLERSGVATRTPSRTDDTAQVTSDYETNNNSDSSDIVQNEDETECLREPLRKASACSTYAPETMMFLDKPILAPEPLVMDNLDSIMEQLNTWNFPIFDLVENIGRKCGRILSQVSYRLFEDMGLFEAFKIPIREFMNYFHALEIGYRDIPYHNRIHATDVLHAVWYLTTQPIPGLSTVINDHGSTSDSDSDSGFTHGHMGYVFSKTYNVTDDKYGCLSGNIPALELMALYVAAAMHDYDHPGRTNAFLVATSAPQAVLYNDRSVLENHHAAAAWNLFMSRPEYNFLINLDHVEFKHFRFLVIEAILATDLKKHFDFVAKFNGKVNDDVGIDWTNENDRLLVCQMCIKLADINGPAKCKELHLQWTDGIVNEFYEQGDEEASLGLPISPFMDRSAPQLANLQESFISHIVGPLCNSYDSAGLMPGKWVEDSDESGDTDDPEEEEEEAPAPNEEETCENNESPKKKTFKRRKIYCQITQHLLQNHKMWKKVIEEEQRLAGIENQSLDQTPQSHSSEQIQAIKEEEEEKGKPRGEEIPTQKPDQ
Sequence of human recombinant PDE10A (Q9Y233 290-1055 limits assumed): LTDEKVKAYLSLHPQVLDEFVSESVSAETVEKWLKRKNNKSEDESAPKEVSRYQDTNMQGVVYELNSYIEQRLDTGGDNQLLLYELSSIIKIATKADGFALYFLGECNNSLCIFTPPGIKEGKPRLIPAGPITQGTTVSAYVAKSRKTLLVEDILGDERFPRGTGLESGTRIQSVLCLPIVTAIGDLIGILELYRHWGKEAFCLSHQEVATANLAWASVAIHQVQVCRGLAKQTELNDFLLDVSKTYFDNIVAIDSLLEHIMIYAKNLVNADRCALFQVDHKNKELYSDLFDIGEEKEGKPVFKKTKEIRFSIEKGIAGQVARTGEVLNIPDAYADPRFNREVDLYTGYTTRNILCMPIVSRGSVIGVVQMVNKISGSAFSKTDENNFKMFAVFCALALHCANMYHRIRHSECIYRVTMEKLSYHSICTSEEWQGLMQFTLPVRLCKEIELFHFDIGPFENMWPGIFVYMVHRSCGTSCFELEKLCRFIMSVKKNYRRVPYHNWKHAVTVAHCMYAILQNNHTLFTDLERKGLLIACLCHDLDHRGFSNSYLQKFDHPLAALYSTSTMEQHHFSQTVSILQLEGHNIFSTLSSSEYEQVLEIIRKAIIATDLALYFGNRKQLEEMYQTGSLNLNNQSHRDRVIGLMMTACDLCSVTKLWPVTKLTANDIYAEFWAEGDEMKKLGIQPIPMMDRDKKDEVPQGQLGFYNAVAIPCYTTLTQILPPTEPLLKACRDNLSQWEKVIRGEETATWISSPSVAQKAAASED

Turning to `CC1CC(=O)NN=C1c1cc(-n2ccnc2)cs1` (stereo not shown) [Motapizone], the “Block of PDE3 activity” value in the assay with PDE3 is “completely blocked”.

Consider `COc1ccc(C(=O)Nc2c(Cl)cncc2Cl)cc1OC1CCCC1` [Piclamilast], for which, in the assay with PDE4, the “Block of PDE4 activity” value is “completely blocked”.

Regarding `Cc1ccc(/C(O)=C2/C(=O)C(=O)N(c3ccccc3)C2=S)cc1` [Compound B, 4-[Hydroxy(4-methylphenyl)methylidene]-1-phenyl-5-thioxopyrrolidine-2,3-dione], the IC50 in assay [1] was 22 µM; at human recombinant PDE2A3, 13 µM; at human recombinant PDE4B2, 9.3 µM; at human recombinant PDE1C1 it was 0.1 µM; at human recombinant PDE3A1, more than 100 µM; on human recombinant PDE5A1, 16 µM. Also, on human recombinant PDE10A, the IC50 was 77 µM. The “IC50 value on human recombinant PDE1C1, in words” value on human recombinant PDE1C1 is recorded as “in the nanomolar range”. The “Selectivity for PDE1C1 versus other PDE family members tested” value on human recombinant PDE1C1 is reported as “selective versus other PDE family members tested”.

Consider `CCCc1nn(C)c2c(=O)[nH]c(-c3cc(S(=O)(=O)N4CCN(C)CC4)ccc3OCC)nc12` [Sildenafil], for which, at PDE5, the “Block of PDE5 activity” value is on record as “completely blocked”.

For `CC(C)(C)CC(C)(C)c1ccc(OCC(=O)N/N=C/c2ccc(-c3cccc(C(=O)O)c3)o2)c([N+](=O)[O-])c1` [Compound A], the IC50 in [1] is more than 100 µM; at human recombinant PDE2A3 it was more than 100 µM; on human recombinant PDE4B2 it was more than 100 µM; at human recombinant PDE1C1, 0.083 µM; on human recombinant PDE3A1, more than 100 µM; on human recombinant PDE5A1 it was more than 100 µM. Further, the IC50 on human recombinant PDE10A was more than 100 µM. Further, on human recombinant PDE1C1, the “IC50 value on human recombinant PDE1C1, in words” value is on record as “in the nanomolar range”. Further, the “Selectivity for PDE1C1 versus other PDE family members tested” value at human recombinant PDE1C1 is listed as “selective versus other PDE family members tested”.

As to `COc1ccc(Cc2nc3c(ncn3C(CCCc3ccccc3)C(C)=O)c(=O)[nH]2)cc1OC` (stereo not shown) [PDP], the “Inhibition of cyclic GMP-induced cyclic AMP degrading activity increment (PDE2)” value at PDE2 is “completely inhibited”.
